One compound from patent US6403621B1, “Method for protecting plants” (Syngenta Crop Protection, Inc., priority 1997, dated 2002) can be followed below.

Data set [1] has as its system root-knot nematodes (Meloidogyne javanica and M. arenaria). The data set is described as follows: Egg production by root-knot nematodes on inoculated grapevines after foliar spray. Type of data set: in vivo. The conditions noted are these: 50 mg/l foliar spray, eggs in 20 ml sub-sample. Here is the method:
(§1) Root-knot nematodes (Meloidogyne spp.) are cultured on tobacco or tomato. Root-knot nematode eggs are collected from these plants and hatched for inoculation of the grapevines using the standard method. Nematode eggs are collected from the inoculated grapevines by agitating clean root pieces in 0,8% NaOCl for four minutes. The roots are washed on a bank of three sieves and eggs collected on a 25 μm sieve. The eggs are washed into 100 ml of water and the number of eggs in a 20 ml sub-sample is estimated using a Doncaster dish. Galling is assessed in grapevine roots before egg counts. The roots are assessed with the naked eye for percentage of galls on the roots.
(§2) Uniformly developed rooted hardwood grapevine cuttings, variety Cabernet Sauvignon (Vitis vinifera), are planted into 20 cm diameter pots (one plant per pot) containing a pasteurised potting mix consisting of 50:50 coarse sand and peat. (Prior to pasteurisation, 300 g of fertiliser is added to each 50 liter bin of potting mix. The fertiliser consisted of 1000 g single superphosphate, 200 g ammonium nitrate, 150 g potassium sulphate, 100 g ferrous sulphate, 3000 g dolomite lime and 1500 g lime). The grapevines are grown in a glasshouse at 19-24° C. The plants are watered on alternate days, and fertilised weekly with a water soluble fertiliser. Grapevines are inoculated with 1000 juveniles of a mixed population of root-knot nematodes (Meloidogyne javanica and M. arenaria) 4 weeks after planting. The nematodes are pipetted into two 2cm deep holes at the base of the plant. Grapevine roots are harvested for nematode egg counts 10 weeks after inoculation (described below).
(§3) Acibenzolar-S-methyl (which is benzo(1,2,3)thiadiazole-7-carbothioic acid S-methyl ester, a plant activator from NOVARTIS) is formulated as a 50% water dispersible granule, diluted to 50 mg per liter of spray mixture and sprayed onto the leaves of the grapevines (using a hand-held sprayer) until the point of run-off.
a) cumulative applications: In the first series, acibenzolar-S-methyl is applied to the plants once, twice or three times. The single treatment of acibenzolar-S-methyl is applied one week before inoculation; the double treatment is applied one week before inoculation and at the same time as inoculation; for the third treatment acibenzolar-S-methyl is applied one week before inoculation, at inoculation and one week after inoculation.
(§4) b) single applications: A second series of experiments tested only single applications of acibenzolar-S-methyl either five days before inoculation, at the same time as inoculation or five days after inoculation. Both series of experiments have been completed twice. Water is used as the control treatment in each series.
(§5) The tables indicate the number of eggs produced by Meloidogyne spp in a 20 ml sub-sample, and the percentage galling on roots, resp.

Data set [2] shares this test system. The data set is described as follows: Percentage galling on grapevine roots after foliar spray. Type of data set: in vivo. The note with it: 50 mg/l foliar spray. Here is the method: as §1, §2, §3, §4, §5
In a further data set the test system is grapevines. The data set is described as follows: Plant tolerance (phytotoxicity, appearance, fresh weights) of treated grapevines. Type of data set: in vivo, Vitis vinifera (Cabernet Sauvignon). The note with it: 50 mg/l foliar spray. The procedure: as §2, §3
For a further data set, the system named is nematodes. The data set is described as follows: Protection of other crops against attack by nematodes. Type of data set: in vivo. The conditions noted are these: applied on tomatoes, soybean, carrots, potatoes and beet. The source says:
Good effects for protecting plants against attack by nematodes are also found by applying acibenzolar-S-methyl on tomatoes, soybean, carrots, potatoes and beet.

In data set [3] the test system is Eggs and juvenile root-knot nematodes. The data set is described as follows: Direct effect on eggs and juvenile root-knot nematodes in aqueous solution. Also noted: species or system Meloidogyne spp. An excerpt:
Direct Effect of Acibenzolar-S-methyl onto Nematodes Eggs and juvenile root-knot nematodes are placed into aqueous solutions of acibenzolar-S-methyl (1, 10, 20 and 50 ppm active ingredient). No effect is observed on egg hatching and viability on those eggs and juvenils on penetration of those nematodes into tomato roots and on the number of eggs produced by those nematodes on tomatoes.

[4] abbreviates: after exposure to aqueous solutions, 1, 10, 20 and 50 ppm active ingredient.

As for `CSC(=O)c1cccc2nnsc12` [acibenzolar-S-methyl, benzo(1,2,3)thiadiazole-7-carbothioic acid S-methyl ester], the Number of eggs is reported as 1520 (8) in data set [1] (one application (one week before inoculation), first experiment, 10 weeks after inoculation, control 4320); 150 (7) in data set [1] (one application (one week before inoculation), second experiment, control 240); 1400 (6) in data set [1] (three applications (one week before, at and one week after inoculation), first experiment, control 4320); 20 (7) in data set [1] (three applications (one week before, at and one week after inoculation), second experiment, control 240); 740 (7) in data set [1] (two applications (one week before and at inoculation), first experiment, control 4320); 100 (7) in data set [1] (two applications (one week before and at inoculation), second experiment, control 240). The Mean percentage galling is recorded as 2.3 (8) % in data set [2] (single application at inoculation, first experiment, control 10); 3 (6) % in data set [2] (single application at inoculation, second experiment, control 5); 1.1 (8) % in data set [2] (single application five days after inoculation, first experiment, control 10); 4 (8) % in data set [2] (single application five days after inoculation, second experiment, control 5); 0.6 (8) % in data set [2] (single application five days before inoculation, first experiment, control 10); 2 (7) % in data set [2] (single application five days before inoculation, second experiment, control 5). In the data set with grapevines (versus water control), the “appearance of grapevines at harvest” value is listed as “no significant differences”. For the same compound, in the data set on grapevines (grapevines), the phytotoxicity entry is recorded as “No phytotoxicity”. The “root fresh weights or fresh weight of the foliage and stems” value in the data set on grapevines (grapevines) is “no difference”. Also, the “protecting plants against attack by nematodes” value with nematodes was “Good effects”. Moreover, the “effect on number of eggs produced by the nematodes on tomatoes” value in data set [3] (setting [4]) is “No effect”. Moreover, in data set [3] (setting [4]), the “effect on penetration of nematodes into tomato roots” value is “No effect”. Further, in data set [3] (aqueous solutions, 1, 10, 20 and 50 ppm active ingredient), the “effect on egg hatching and viability of eggs and juveniles” value was “No effect”.
